Assay results taken from ChEMBL document CHEMBL5291721, “A preclinical secondary pharmacology resource illuminates target-adverse drug reaction associations of marketed drugs” (Nat Commun, 2023).

Key:
[1] = biological target: Beta-2 adrenergic receptor (Homo sapiens, UniProt P07550)
Glucocorticoid receptor = biological target: T1, Glucocorticoid receptor (Homo sapiens, UniProt P04150)
T1 sequence (P04150 whole entry): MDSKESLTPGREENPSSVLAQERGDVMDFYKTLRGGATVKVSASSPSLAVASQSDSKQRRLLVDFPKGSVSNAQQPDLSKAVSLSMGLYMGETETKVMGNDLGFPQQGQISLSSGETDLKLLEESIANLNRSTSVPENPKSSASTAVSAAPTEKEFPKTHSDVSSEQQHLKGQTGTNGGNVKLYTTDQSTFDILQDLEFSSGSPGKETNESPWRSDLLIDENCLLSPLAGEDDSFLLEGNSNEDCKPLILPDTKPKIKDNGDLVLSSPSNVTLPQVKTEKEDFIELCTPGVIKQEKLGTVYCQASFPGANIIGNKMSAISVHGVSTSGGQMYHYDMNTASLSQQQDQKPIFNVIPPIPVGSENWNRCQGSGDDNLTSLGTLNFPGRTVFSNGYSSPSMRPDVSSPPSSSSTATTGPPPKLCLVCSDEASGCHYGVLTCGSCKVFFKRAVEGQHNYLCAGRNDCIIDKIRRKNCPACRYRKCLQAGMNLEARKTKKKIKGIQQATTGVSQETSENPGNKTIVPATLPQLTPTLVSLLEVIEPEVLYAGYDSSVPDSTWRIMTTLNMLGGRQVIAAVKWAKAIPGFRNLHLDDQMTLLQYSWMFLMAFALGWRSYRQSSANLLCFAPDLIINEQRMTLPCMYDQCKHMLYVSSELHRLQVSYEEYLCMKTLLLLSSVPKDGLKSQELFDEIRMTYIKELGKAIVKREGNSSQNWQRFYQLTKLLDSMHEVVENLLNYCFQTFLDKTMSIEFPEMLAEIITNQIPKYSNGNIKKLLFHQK

Progesterone receptor = biological target: T2, Progesterone receptor (Homo sapiens, UniProt P06401)
T2 sequence (P06401 whole entry): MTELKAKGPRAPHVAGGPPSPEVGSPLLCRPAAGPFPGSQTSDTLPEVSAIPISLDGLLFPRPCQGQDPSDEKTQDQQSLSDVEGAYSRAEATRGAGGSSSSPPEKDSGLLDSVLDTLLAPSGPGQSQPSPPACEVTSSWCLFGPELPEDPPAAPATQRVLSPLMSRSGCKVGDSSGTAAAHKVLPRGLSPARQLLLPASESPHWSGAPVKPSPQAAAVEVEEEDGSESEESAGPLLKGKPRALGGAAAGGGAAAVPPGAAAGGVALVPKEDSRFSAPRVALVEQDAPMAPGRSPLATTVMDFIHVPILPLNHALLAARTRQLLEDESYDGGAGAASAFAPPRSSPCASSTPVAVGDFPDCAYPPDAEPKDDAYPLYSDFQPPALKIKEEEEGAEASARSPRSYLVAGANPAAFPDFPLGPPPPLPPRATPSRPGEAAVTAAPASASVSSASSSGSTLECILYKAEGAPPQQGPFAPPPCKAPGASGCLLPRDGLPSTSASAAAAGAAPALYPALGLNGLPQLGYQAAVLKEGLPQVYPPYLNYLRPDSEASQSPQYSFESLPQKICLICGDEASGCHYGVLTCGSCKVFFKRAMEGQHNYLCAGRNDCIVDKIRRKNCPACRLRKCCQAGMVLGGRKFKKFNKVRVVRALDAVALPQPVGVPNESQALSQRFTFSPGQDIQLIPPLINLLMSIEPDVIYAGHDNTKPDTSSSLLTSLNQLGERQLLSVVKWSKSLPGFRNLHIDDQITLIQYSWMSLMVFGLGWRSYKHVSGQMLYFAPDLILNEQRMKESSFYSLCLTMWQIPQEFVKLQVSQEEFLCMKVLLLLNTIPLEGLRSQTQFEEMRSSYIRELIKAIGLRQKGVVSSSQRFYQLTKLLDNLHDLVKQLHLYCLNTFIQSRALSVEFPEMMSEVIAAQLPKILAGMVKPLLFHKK

[2] = biological target: Sodium-dependent serotonin transporter (Homo sapiens, UniProt P31645)
Sequence of Sodium-dependent serotonin transporter (P31645 whole entry): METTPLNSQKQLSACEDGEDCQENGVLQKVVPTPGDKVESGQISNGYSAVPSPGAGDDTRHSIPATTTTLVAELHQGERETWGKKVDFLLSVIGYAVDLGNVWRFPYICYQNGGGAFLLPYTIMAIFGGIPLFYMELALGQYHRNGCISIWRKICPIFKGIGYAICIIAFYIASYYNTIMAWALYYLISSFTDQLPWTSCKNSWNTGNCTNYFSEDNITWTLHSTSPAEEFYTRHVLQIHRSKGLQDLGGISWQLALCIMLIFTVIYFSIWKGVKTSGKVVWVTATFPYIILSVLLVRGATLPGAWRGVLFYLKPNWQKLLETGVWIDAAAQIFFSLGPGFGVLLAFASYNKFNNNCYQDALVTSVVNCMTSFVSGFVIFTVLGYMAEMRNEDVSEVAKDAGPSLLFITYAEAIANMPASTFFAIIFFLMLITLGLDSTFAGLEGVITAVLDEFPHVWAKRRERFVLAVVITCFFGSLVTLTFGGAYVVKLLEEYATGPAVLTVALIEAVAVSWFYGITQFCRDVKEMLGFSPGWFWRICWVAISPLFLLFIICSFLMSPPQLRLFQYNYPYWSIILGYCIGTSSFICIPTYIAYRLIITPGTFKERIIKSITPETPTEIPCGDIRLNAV

[3] = biological target: Beta-1 adrenergic receptor (Homo sapiens, UniProt P08588); format: functional
Sequence of Beta-1 adrenergic receptor (P08588 whole entry): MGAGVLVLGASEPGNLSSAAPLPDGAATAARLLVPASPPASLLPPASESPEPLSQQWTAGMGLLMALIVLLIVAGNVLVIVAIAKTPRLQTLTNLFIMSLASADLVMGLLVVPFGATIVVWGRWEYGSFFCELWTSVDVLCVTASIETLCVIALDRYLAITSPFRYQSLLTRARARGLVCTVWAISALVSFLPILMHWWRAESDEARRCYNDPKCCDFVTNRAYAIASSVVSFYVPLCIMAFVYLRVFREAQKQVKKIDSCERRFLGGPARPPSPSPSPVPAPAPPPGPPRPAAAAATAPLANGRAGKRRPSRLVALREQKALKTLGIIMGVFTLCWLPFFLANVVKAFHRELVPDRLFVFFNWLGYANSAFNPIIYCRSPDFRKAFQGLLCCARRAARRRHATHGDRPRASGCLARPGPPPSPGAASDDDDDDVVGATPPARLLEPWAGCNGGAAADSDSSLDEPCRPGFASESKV

[4] = biological target: Glutamate receptor ionotropic, NMDA 1 (Rattus norvegicus, UniProt P35439)
Cannabinoid receptor 1 = Cannabinoid receptor 1 (Homo sapiens, UniProt P21554); format: functional, cell-based
Sequence of Cannabinoid receptor 1 (P21554 whole entry): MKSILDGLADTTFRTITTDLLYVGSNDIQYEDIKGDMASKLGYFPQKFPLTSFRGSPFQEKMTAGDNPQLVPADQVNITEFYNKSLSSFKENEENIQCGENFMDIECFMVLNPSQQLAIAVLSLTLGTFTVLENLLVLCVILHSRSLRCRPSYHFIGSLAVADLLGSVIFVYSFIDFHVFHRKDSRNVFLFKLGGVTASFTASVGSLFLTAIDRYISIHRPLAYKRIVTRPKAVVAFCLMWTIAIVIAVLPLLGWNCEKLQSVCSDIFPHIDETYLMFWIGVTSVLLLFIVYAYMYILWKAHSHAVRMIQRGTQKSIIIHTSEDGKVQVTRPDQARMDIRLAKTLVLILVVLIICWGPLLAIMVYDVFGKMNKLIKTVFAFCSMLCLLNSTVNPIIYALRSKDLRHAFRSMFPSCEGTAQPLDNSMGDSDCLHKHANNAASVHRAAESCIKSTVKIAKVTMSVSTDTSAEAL

[5] = biological target: T3, Muscarinic acetylcholine receptor M2 (Homo sapiens, UniProt P08172); format: functional, cell-based
T3 sequence (P08172 whole entry): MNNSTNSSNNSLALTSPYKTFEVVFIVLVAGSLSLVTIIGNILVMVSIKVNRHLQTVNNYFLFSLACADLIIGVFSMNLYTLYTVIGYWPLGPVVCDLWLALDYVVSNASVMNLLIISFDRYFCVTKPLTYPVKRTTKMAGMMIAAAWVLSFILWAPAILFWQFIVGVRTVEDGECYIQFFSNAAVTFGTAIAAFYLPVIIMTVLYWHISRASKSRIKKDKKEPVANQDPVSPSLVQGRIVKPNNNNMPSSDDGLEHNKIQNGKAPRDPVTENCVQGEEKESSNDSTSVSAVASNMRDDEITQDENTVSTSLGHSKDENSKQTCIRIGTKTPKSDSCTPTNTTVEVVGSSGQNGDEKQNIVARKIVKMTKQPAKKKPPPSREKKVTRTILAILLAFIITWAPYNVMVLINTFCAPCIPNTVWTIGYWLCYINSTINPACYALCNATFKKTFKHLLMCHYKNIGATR

[6] = biological target: T4, Alpha-1A adrenergic receptor (Homo sapiens, UniProt P35348); format: functional, cell-based
T4 sequence (P35348 whole entry): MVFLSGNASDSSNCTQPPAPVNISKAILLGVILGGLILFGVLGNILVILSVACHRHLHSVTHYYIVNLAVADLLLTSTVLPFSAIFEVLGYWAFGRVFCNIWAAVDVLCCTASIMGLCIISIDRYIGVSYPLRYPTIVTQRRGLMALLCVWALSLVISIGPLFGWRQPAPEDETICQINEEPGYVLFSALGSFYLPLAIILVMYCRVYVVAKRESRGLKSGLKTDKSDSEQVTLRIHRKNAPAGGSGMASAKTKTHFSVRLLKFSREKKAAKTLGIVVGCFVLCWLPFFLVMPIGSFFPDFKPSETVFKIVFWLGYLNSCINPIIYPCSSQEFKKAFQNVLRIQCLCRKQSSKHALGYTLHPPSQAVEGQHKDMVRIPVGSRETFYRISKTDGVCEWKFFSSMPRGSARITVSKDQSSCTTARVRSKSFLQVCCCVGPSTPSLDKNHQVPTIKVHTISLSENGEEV

[7] = biological target: T4, Alpha-1A adrenergic receptor; format: functional, cell-based; remark: listed apart in the source
Note: assay procedure not described here.

Sequence of Beta-2 adrenergic receptor (P07550 whole entry): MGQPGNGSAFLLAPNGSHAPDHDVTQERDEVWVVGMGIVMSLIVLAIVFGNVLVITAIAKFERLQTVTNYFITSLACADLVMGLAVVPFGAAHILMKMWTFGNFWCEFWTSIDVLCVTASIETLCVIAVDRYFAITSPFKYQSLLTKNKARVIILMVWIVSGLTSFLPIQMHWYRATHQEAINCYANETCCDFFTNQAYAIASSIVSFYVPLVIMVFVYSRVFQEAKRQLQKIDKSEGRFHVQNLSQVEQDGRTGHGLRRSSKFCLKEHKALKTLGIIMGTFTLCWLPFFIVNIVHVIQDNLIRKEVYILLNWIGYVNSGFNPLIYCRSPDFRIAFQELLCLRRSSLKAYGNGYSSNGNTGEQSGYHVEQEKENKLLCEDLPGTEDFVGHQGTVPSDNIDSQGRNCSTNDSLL

SMILES | AC50 [1] [µM] | AC50 (Glucocorticoid receptor) [µM] | AC50 (Progesterone receptor) [µM] | AC50 [2] [µM] | AC50 [3] [µM] | AC50 [4] [µM] | AC50 (Cannabinoid receptor 1) [µM] | AC50 [5] [µM] | AC50 [6] [µM] | AC50 [7] [µM]
COc1cc(Nc2c(C#N)cnc3cc(OCCCN4CCN(C)CC4)c(OC)cc23)c(Cl)cc1Cl [BOSUTINIB] | > 10 | > 30 | 7.75 | 11 | > 10 | > 10 | – | – | – | –
CN(CCOc1ccc(NS(C)(=O)=O)cc1)CCc1ccc(NS(C)(=O)=O)cc1 [DOFETILIDE] | > 10 | > 30 | > 30 | > 10 | > 10 | > 10 | > 30 | > 30 | > 30 | > 30
COc1cc2c(cc1OC)C(=O)C(CC1CCN(Cc3ccccc3)CC1)C2 (centres undefined) [DONEPEZIL] | > 10 | – | > 30 | > 30 | > 10 | – | > 30 | – | – | –
OCCN1CCN(CCCN2c3ccccc3C=Cc3ccccc32)CC1 [OPIPRAMOL] | – | > 30 | > 30 | > 30 | > 30 | > 30 | > 30 | > 30 | > 30 | 1.07
CC(C(=O)O)c1ccc(N2CC=CC2)c(Cl)c1 (centres undefined) [PIRPROFEN] | > 10 | > 30 | > 30 | > 10 | > 10 | > 10 | > 30 | > 10 | > 30 | > 30
O=C(NC[C@H]1CN(c2ccc(N3CCOCC3=O)cc2)C(=O)O1)c1ccc(Cl)s1 [RIVAROXABAN] | – | – | > 30 | > 30 | – | > 30 | > 30 | > 30 | > 30 | > 3
CCCS(=O)(=O)Nc1ccc(F)c(C(=O)c2c[nH]c3ncc(-c4ccc(Cl)cc4)cc23)c1F [VEMURAFENIB] | > 30 | > 30 | – | > 30 | > 30 | > 30 | > 30 | > 30 | – | –
